{"source": "patent US4347319A", "about": "“Microbiological epoxidation process” (priority 1980, dated 1982)", "key": {"[1]": {"system": "Methylocystis parvus CRL 18 NRRL B-11,204", "assay": "Sec. alcohol oxidation by cell suspensions of methanol-grown cells", "format": "cell-based", "details": "sec. alcohol to methyl ketone"}, "[2]": {"system": "Candida utilis ATCC 26387", "assay": "Oxidation of sec-alcohols to ketones by cell suspensions of yeasts", "format": "cell-based", "details": "sec-alcohol to methyl ketone"}, "[3]": {"system": "Hansenula polymorpha ATCC 26012", "assay": "Oxidation of sec-alcohols to ketones by cell suspensions of yeasts", "format": "cell-based", "details": "sec-alcohol to methyl ketone"}, "Pichia sp. NRRL-Y-11328": {"system": "Pichia sp. NRRL-Y-11328", "assay": "Oxidation of sec-alcohols to ketones by cell suspensions of yeasts", "format": "cell-based", "details": "sec-alcohol to methyl ketone"}, "[4]": {"system": "Torulopsis sp. Strain A1 (NRRLY-11,419)", "assay": "Oxidation of sec-alcohols to ketones by cell suspensions of yeasts", "format": "cell-based", "details": "sec-alcohol to methyl ketone"}, "[5]": {"system": "Kloeckera sp. Strain A2 (NRRLY-11,420)", "assay": "Oxidation of sec-alcohols to ketones by cell suspensions of yeasts", "format": "cell-based", "details": "sec-alcohol to methyl ketone"}, "[6]": {"system": "cell extract of Candida utilis ATCC 26,387", "assay": "Oxidation of secondary alcohols to methylketone by cell extracts of yeasts", "format": "biochemical"}, "[7]": {"system": "cell extract of Hansenula polymorpha ATCC 26,012", "assay": "Oxidation of secondary alcohols to methylketone by cell extracts of yeasts", "format": "biochemical"}, "[8]": {"system": "cell extract of Pichia sp. NRRL-Y-11,328", "assay": "Oxidation of secondary alcohols to methylketone by cell extracts of yeasts", "format": "biochemical", "details": "methanol-grown; cell extract + NAD^+; sec. alcohol to methyl ketone; gas chromatography"}, "[9]": {"system": "cell extract of Torulopsis sp. strain A1 NRRL-Y-11,419", "assay": "Oxidation of secondary alcohols to methylketone by cell extracts of yeasts", "format": "biochemical"}, "[10]": {"system": "cell extract of Kloeckera sp. strain A2 NRRL-Y-11,420", "assay": "Oxidation of secondary alcohols to methylketone by cell extracts of yeasts", "format": "biochemical"}, "[11]": {"system": "purified secondary alcohol dehydrogenase from Pichia sp. NRRL Y-11,328", "assay": "Substrate specificity, electron acceptor and stoichiometry of purified yeast SADH", "format": "biochemical", "details": "examined spectrophotometrically"}, "[12]": {"system": "cell-free soluble extract of Pseudomonas sp. CRL 75 ATCC 21439", "details": "growth substrate CH3 OH; NAD added", "method": "To prepare the cell-free secondary alcohol dehydrogenous (SADH) system, the washed cells were disrupted with a Wave Energy Ultrasonic Oscillator, Model W201 (Wave Energy System, Inc., Newtown, Pa.) and centrifuged at 20,000×g. for 30 minutes. The clear supernatant contained the SADH activity. The enzyme activity was measured with a fluorescence spectrophotometer (Perkin Elmer, Model MPF 44A) by following the formation of reduced NAD (EX 340 nm, Em 460 nm). The formation of reduced NAD was also followed with an absorption spectrophotometer at 340 nm. The assay system (3 ml.) contained: potassium phosphate buffer pH 7.0; 150 μmol.; NAD 1 μmol.; a given amount of enzyme preparation; and secondary alcohol 10 μmol. The reaction was started by the addition of substrate. One unit of enzyme activity represents the reduction of one μmole NAD per minute. Protein concentrations were determined by the Lowry method as referenced above."}, "[13]": {"system": "methane-grown strain Methylococcus capsulatus NRRL B-11,219", "assay": "Effect of methane on the epoxidation of propylene by a cell suspension", "format": "cell-based", "details": "in the presence of methane", "text": "Both the epoxidation of the C2 -C4 1-alkenes and the hydroxylation of methane with the cell suspensions were inhibited by various metal-binding and metal-chelating agents, indicating the involvement of metal(s)-containing enzyme system(s). […] The epoxidation of propylene to propylene oxide by a cell suspension of methane-grown strain Methylococcus capsulatus NRRL B-11,219 was inhibited (50%) in the presence of the hydroxylation substrate, methane (Table XV). […] It is likely that the methane mono-oxygenase enzyme system catalyzes both the epoxidation of alkene and the hydroxylation of methane. May and Abbott publications, supra, have reported that the ω-hydroxylation system from Pseudomonas oleovorans catalyzed both the epoxidation of 1-octene and the hydroxylation of n-octane."}, "[14]": {"system": "methylotrophic microorganism strains of the present invention grown on methanol", "assay": "Comparative test with methanol-grown washed cell suspensions", "format": "cell-based"}, "[15]": {"system": "Methylocystis parvus (CRL 18 PM4) NRRL B-11,204", "assay": "Oxidation by washed cell suspensions of methane-grown cells", "format": "cell-based", "details": "methane-grown washed cells, 30° C.; methane to methanol, alkene to 1,2-epoxide", "outline": "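Cells grown 2 days at 30 °C under methane/air 1:1 (pH 7.0 medium), washed and resuspended in 0.15 M phosphate pH 7.0. Suspension (2 mg cells) incubated at 30 °C, 300 rpm under substrate/O2 1:1 (liquid substrates 10 μl); products measured periodically by GC with flame ionization detection.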"}, "[16]": {"system": "cell-free particulate fractions derived from the methylotrophic microorganisms", "assay": "Inhibition of conversion of C3 -C6 n-alkanes to sec. alcohols", "format": "biochemical", "details": "oxygen and NADH present", "text": "The conditions for preparing the cell suspensions or the cell-free particulate fractions from methane-grown methylotroph microorganisms is the same as described above."}, "[17]": {"details": "2-butanol as a substrate, spectrophotometrically"}, "[18]": {"details": "methanol-grown, cell extract + NAD^+, sec. alcohol to methyl ketone, gas chromatography"}}}
{"smiles": "CCC(C)O", "note": "(centres unmarked) [2-Butanol]", "values": [{"measurement": "Conversion Rates", "setting": "[1]", "result": 1.0, "unit": "μmoles/hr/mg protein"}, {"measurement": "Conversion Rate", "setting": "[2]; growth substrate Ethanol", "result": "5.2 μmoles/hr/mg of protein"}, {"measurement": "Conversion Rate", "setting": "[2]; growth substrate Methanol", "result": "6.8 μmoles/hr/mg of protein"}, {"measurement": "Conversion Rate", "setting": "[2]; growth substrate Methylamine", "result": "5.0 μmoles/hr/mg of protein"}, {"measurement": "Conversion Rate", "setting": "[2]; growth substrate Methylformate", "result": "6.2 μmoles/hr/mg of protein"}, {"measurement": "Conversion Rate", "setting": "[2]; growth substrate Propylamine", "result": "4.2 μmoles/hr/mg of protein"}, {"measurement": "Conversion Rate", "setting": "[3]; growth substrate Ethanol", "result": "4.8 μmoles/hr/mg of protein"}, {"measurement": "Conversion Rate", "setting": "[3]; growth substrate Methanol", "result": "5.8 μmoles/hr/mg of protein"}, {"measurement": "Conversion Rate", "setting": "[3]; growth substrate Methylamine", "result": "4.5 μmoles/hr/mg of protein"}, {"measurement": "Conversion Rate", "setting": "[3]; growth substrate Methylformate", "result": "5.2 μmoles/hr/mg of protein"}, {"measurement": "Conversion Rate", "setting": "[3]; growth substrate Propylamine", "result": "4.0 μmoles/hr/mg of protein"}, {"measurement": "Conversion Rate", "setting": "Pichia sp. NRRL-Y-11328; growth substrate Ethanol", "result": "6.2 μmoles/hr/mg of protein"}, {"measurement": "Conversion Rate", "setting": "Pichia sp. NRRL-Y-11328; growth substrate Methanol", "result": "6.8 μmoles/hr/mg of protein"}, {"measurement": "Conversion Rate", "setting": "Pichia sp. NRRL-Y-11328; growth substrate Methylamine", "result": "5.1 μmoles/hr/mg of protein"}, {"measurement": "Conversion Rate", "setting": "Pichia sp. NRRL-Y-11328; growth substrate Methylformate", "result": "6.9 μmoles/hr/mg of protein"}, {"measurement": "Conversion Rate", "setting": "Pichia sp. NRRL-Y-11328; growth substrate Propylamine", "result": "2.1 μmoles/hr/mg of protein"}, {"measurement": "Conversion Rate", "setting": "[4]; growth substrate Ethanol", "result": "4.7 μmoles/hr/mg of protein"}, {"measurement": "Conversion Rate", "setting": "[4]; growth substrate Methanol", "result": "4.9 μmoles/hr/mg of protein"}, {"measurement": "Conversion Rate", "setting": "[4]; growth substrate Methylamine", "result": "4.5 μmoles/hr/mg of protein"}, {"measurement": "Conversion Rate", "setting": "[4]; growth substrate Methylformate", "result": "4.9 μmoles/hr/mg of protein"}, {"measurement": "Conversion Rate", "setting": "[4]; growth substrate Propylamine", "result": "3.8 μmoles/hr/mg of protein"}, {"measurement": "Conversion Rate", "setting": "[5]; growth substrate Ethanol", "result": "5.7 μmoles/hr/mg of protein"}, {"measurement": "Conversion Rate", "setting": "[5]; growth substrate Methanol", "result": "5.9 μmoles/hr/mg of protein"}, {"measurement": "Conversion Rate", "setting": "[5]; growth substrate Methylamine", "result": "5.4 μmoles/hr/mg of protein"}, {"measurement": "Conversion Rate", "setting": "[5]; growth substrate Methylformate", "result": "5.9 μmoles/hr/mg of protein"}, {"measurement": "Conversion Rate", "setting": "[5]; growth substrate Propylamine", "result": "4.2 μmoles/hr/mg of protein"}, {"measurement": "specific activities", "setting": "[6]; [17]", "result": "78 nmoles NAD^+ reduced per min. per mg. protein"}, {"measurement": "Conversion Rate", "setting": "[6]; [18]", "result": 4.92, "unit": "μmoles/hr/mg Protein"}, {"measurement": "specific activities", "setting": "[7]; [17]", "result": "85 nmoles NAD^+ reduced per min. per mg. protein"}, {"measurement": "Conversion Rate", "setting": "[7]; [18]", "result": 5.2, "unit": "μmoles/hr/mg Protein"}, {"measurement": "Conversion Rate", "setting": "[8]", "result": 6.2, "unit": "μmoles/hr/mg Protein"}, {"measurement": "specific activities", "setting": "[9]; [17]", "result": "62 nmoles NAD^+ reduced per min. per mg. protein"}, {"measurement": "Conversion Rate", "setting": "[9]; [18]", "result": 4.9, "unit": "μmoles/hr/mg Protein"}, {"measurement": "specific activities", "setting": "[10]; [17]", "result": "90 nmoles NAD^+ reduced per min. per mg. protein"}, {"measurement": "Conversion Rate", "setting": "[10]; [18]", "result": 5.9, "unit": "μmoles/hr/mg Protein"}, {"measurement": "oxidation by the purified enzyme", "setting": "[11]", "result": "catalyzed the oxidation"}, {"measurement": "Conversion Rate 2-butanol to 2-butanone", "setting": "[12]", "result": 25.0, "unit": "nmoles/min/mg protein"}]}
{"smiles": "C", "note": "[Methane]", "values": [{"measurement": "inhibition of the epoxidation of propylene to propylene oxide", "setting": "[13]", "result": 50, "unit": "%"}, {"measurement": "hydroxylation / epoxidation ability", "setting": "[14]", "result": "did not possess the ability"}]}
{"smiles": "C=CC", "note": "[Propylene]", "values": [{"measurement": "Oxidative Conversion Rates", "setting": "[15]", "result": 1.5, "unit": "μmole/hr/mg protein"}, {"measurement": "inhibition of conversion of n-alkanes to sec. alcohols", "setting": "[16]", "result": "inhibited"}]}
